Paper PMC6749521, “The Effect of Flavonoid Aglycones on the CYP1A2, CYP2A6, CYP2C8 and CYP2D6 Enzymes Activity” (Molecules, 2019)
Where two headings read alike, the source gives them in different places. Each block holds one compound with its values, some of them ahead of it.

Key:
[1] = tested on: CYP3A4; design: method as in PMID 30301254; conditions: statistical significance p < 0.1; cited from earlier work
[2] = target: T1, CYP2A6 (Homo sapiens, UniProt P11509); assay: CYP2A6 enzyme activity, coumarin 7-hydroxylation (MDI, TDI, DI assays), recombinant baculosomes; conditions: for Inhibition of CYP2A6 enzyme activity / activity at 30 min, 1 µM: 1 µM flavonoid; for activity at 30 min, 1 µM: human, pH 7.4, probe coumarin (7-hydroxylation), 10 µM, Residual CYP2A6 enzyme activity
T1 sequence (P11509 1-494): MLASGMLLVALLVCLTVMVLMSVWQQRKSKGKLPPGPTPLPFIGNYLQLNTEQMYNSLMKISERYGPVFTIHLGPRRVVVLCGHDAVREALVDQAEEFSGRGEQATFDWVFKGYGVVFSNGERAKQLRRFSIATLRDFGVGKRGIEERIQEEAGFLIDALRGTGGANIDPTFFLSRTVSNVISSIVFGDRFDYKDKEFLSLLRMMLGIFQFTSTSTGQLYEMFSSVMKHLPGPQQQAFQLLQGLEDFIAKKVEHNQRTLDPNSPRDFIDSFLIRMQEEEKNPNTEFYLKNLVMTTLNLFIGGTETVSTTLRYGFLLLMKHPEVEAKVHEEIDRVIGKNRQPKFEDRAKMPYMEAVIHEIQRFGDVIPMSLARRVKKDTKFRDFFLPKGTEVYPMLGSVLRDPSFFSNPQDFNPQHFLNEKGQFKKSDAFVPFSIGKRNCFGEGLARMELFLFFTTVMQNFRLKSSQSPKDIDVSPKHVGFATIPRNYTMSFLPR
Protocol: (§1) The recombinant baculosomes with hyperexpressed cytochromes P450 (1A2, 2A6, 2C8, and 2D6) and coexpressed NADPH cytochrome P450 reductase and cytochrome b5 were used as a source of enzyme. Baculosomes were commercially obtained from Thermo Fisher Scientific (Waltham, MA, USA), and all other chemicals from Sigma-Aldrich if not otherwise indicated. A 1.0 M solution phosphate buffer of pH 7.4 was prepared in house. NADPH generating system was prepared of 0.1 M glucose-6-phosphate, 10 mg mL^−1 NADP^+, and 1000 IU mL^−1 glucose-6-phosphate dehydrogenase in ratio 100:50:2 (v/v/v).
The aromatic hydroxylation of coumarin at the position 7 was used as a marker reaction for CYP2A6. The incubation conditions were the same as for CYP1A2 enzyme (vide supra) unless otherwise stated. The final concentration of coumarin was 10 µM, while the incubation time was extended to 30 min.
HPLC-DAD analysis was conducted on the same system as the CYP1A2 enzyme with the following modifications: The gradient timetable (t/min, %B) was (0, 20), (1.5, 20), (10, 70), (11, 20), (17, 20), and the detection wavelength was 330 nm. The retention time of the substrate (coumarin) was 7.5 min, while the product (7-hydroxycoumarin) was detected at 4.8 min. The amount of generated product was determined as the area under the curve based on the calibration curve of the standard.
(§2) Three types of experiments were conducted to determine metabolism dependent inhibition, time dependent inhibition, and direct inhibition of CYP1A2, CYP2A6, CYP2C8, and CYP2D6 enzymes.
(§3) To determine metabolism dependent inhibition (MDI assay), the flavonoid was first preincubated with the enzyme with the addition of the generating system for 30 min, after which the marker substrate was added to determine residual enzyme activity (as described above for each enzyme).
(§4) If metabolism dependent inhibition was determined, time dependent inhibition and direct inhibition were tested. Time dependent inhibition (TDI assay) was assessed by preincubating the flavonoid and enzyme, without the generating system, after which residual activity was determined by adding the NADPH generating system along with the substrate (as described above for each enzyme).
(§5) The direct inhibition assay (DI assay) was conducted without preincubation, i.e., the NADPH generating system was added to the incubation mixture containing flavonoid and substrate following the experimental set-up described above for each individual cytochrome P450 enzyme.
(§6) Pure time dependent inhibitors require time to interact with the enzyme. Thus, TDI inhibitors will show a reduction of enzyme activity in assays with preincubations, i.e., the MDI and TDI assays, but not in the DI assay (no preincubation). […] DI inhibitors will reduce enzyme activity in all three assays (MDI, TDI, and DI).
(§7) All incubations were conducted in triplicate. The results are expressed as the residual activity of the enzyme, i.e., the percentage of product generated in incubation with the addition of flavonoid in ratio to the control without flavonoid. The statistical significance was tested with Student’s t-test in the program R (The R Project for Statistical Computing, Vienna, Austria).

[3] = tested on: CYP2A6; conditions: ref 31 (Boonruanga et al.), cited from earlier work
[4] = target: T2, CYP2C8 (Homo sapiens, UniProt P10632); assay: CYP2C8 enzyme activity, paclitaxel 6α-hydroxylation (MDI, TDI, DI assays), recombinant baculosomes; assay type: biochemical; conditions: for Inhibition of CYP2C8 paclitaxel 6-α-hydroxylation / CYP2C8 enzyme activity in the TDI assay: 1 µM flavonoid; for Type of CYP2C8 inhibition: concluded from MDI, TDI, DI assays at 1 µM
T2 construct: purchased Thermo Fisher Scientific; host or cells: baculosomes
T2 sequence (P10632 1-490): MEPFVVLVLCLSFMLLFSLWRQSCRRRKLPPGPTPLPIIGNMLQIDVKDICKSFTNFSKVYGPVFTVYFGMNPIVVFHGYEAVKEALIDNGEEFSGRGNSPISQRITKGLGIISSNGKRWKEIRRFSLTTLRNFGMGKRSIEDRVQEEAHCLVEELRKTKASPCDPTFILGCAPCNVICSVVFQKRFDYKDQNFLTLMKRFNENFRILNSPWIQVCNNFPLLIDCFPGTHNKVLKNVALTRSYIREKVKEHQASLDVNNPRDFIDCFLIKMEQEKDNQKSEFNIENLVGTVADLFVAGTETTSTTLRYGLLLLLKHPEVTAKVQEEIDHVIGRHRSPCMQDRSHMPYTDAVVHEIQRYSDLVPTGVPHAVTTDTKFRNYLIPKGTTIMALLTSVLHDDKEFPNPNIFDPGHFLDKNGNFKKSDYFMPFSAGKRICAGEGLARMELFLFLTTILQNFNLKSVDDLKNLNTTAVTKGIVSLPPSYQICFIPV
Protocol: as §1
Paclitaxel 6α-hydroxylation was used as a marker reaction for monitoring CYP2C8 enzyme activity (Figure 2). The incubation conditions were the same as for CYP1A2 enzyme (vide supra) unless otherwose stated. The final concentration of paclitaxel was 20 µM, while the incubation time was set to 30 min.
HPLC-DAD analysis was conducted on the same system as the CYP1A2 enzyme with the following modifications: The gradient timetable (t/min, %B) was (0, 50), (2, 50), (10, 90), (11, 50), (17, 50), and the detection wavelength was 227 nm. […] The amount of generated product was determined as the area under the curve based on the calibration curve of the standard.
as §2, §3, §4, §5, §6, §7

[5] = tested on: rat liver microsomes; design: method as in ref 24 (Siess et al.); conditions: ref 24 (Siess et al.), cited from earlier work
[6] = tested on: CYP1A2; design: method as in ref 23 (Lee et al.); conditions: ref 23 (Lee et al.); cited from earlier work
[7] = tested on: CYP1A2; design: method as in ref 25 (Kim et al.); conditions: recombinant cytochrome P450 system; ref 25 (Kim et al.); cited from earlier work
[8] = target: T3, CYP1A2 (Homo sapiens, UniProt P05177); assay: CYP1A2 enzyme activity, phenacetin O-deethylation (MDI, TDI, DI assays), recombinant baculosomes; conditions: for activity at 15 min, 1 µM: human, pH 7.4, probe phenacetin (O-deethylation), 150 µM
T3 sequence (P05177 1-516): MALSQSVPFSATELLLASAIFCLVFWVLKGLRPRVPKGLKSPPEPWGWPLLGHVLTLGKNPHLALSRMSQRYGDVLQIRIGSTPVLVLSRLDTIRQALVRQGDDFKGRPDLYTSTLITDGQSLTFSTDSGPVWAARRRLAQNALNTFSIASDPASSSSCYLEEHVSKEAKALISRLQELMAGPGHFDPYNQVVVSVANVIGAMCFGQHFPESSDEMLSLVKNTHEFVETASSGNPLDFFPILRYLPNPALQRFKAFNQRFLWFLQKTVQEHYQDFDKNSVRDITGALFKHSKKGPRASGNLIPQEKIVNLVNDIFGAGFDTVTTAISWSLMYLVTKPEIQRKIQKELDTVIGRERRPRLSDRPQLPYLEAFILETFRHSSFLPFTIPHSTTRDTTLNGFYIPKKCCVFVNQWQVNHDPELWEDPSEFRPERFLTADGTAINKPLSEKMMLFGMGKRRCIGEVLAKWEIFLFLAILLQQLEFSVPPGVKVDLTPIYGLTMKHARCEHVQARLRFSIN
Protocol: as §1
Phenacetine O-deethylation was used as a marker reaction for monitoring CYP1A2 enzyme activity (Figure 2). Incubations of 100 µL were conducted at the temperature of 37 °C. The pH of the incubation mixture was set at 7.4 using a potassium phosphate buffer (final concentration 50 mM). The total amount of CYP1A2 enzyme was 5 pmol, and the final concentration of substrate was 150 µM. Residual activity was determined by incubating the flavonoid (1 µM) with phenacetine as a substrate for 15 min, with or without preincubation, depending of the type of inhibition assay. Reactions were started by the addition of 15 µL of NADPH generating system, while the reactions were stopped by the addition of 1 mL 1% formic acid in acetonitrile. After centrifugation (10 min, 1900× g), the clear solution was transferred to a vial for HPLC analysis.
HPLC analysis was performed on Agilent 1100 instrument (Santa Clara, CA, USA) coupled with a diode array detector (DAD) on Luna C18 column (4.6 × 150 mm, 3 μm). The gradient method was used for separation. Mobile phase A consisted of water, acetonitrile, and glacial acetic acid in the volume ratio of 90:10:0.1, while mobile phase B contained the same solvents in the ratio 10:90:0.1. The following gradient timetable was used (t/min, %B): (0, 0), (2, 0), (13, 55), (14, 0), (20, 0). The flow rate was 1 mL/min, and chromatograms were recorded at 254 nm. Volume of incubation injected to the column was 15 µL. […] The amount of generated product (acetaminophen) was determined as the area under the curve based on the calibration curve of the standard.
as §2, §3, §4, §5, §6
All incubations were conducted in triplicate. The results are expressed as the residual activity of the enzyme, i.e., the percentage of product generated in incubation with the addition of flavonoid in ratio to the control without flavonoid.

[9] = concluded from MDI, TDI, DI assays at 1 µM

Structure (SMILES): COc1ccc(-c2cc(=O)c3c(O)cc(O)cc3o2)cc1 [acacetin]
- Inhibition of CYP3A4 metabolic activity [1]: inhibition

Structure (SMILES): O=c1cc(-c2ccc(O)cc2)oc2cc(O)cc(O)c12 [apigenin]
- Inhibition of CYP2A6 enzyme activity [2]: inhibited
- activity at 30 min, 1 µM ([2]; direct inhibition (DI) assay): 48 ± 1%
- activity at 30 min, 1 µM ([2]; metabolism dependent inhibition (MDI) assay, coumarin 10 µM): 47 ± 7%
- IC50 ([3]; read-out: IC50, direct inhibition assay): 900 ± 70 nM
- IC50 ([3]; read-out: IC50, metabolism dependent inhibition assay): 770 ± 160 nM

- Inhibition of CYP2C8 paclitaxel 6-α-hydroxylation [4]: inhibition
Structure (SMILES): COc1cc(OC)c2c(=O)cc(-c3ccccc3)oc2c1 [chrysin-dimethylether]
- CYP2C8 enzyme activity in the TDI assay [4]: reduction of enzyme activity was not observed
- Type of CYP2C8 inhibition [4]: mixed reversible and irreversible inhibitors
- Inhibition of CYP3A4 metabolic activity [1]: inhibition

- Inhibition of CYP2C8 paclitaxel 6-α-hydroxylation [4]: inhibition
- Inhibition of CYP1A2 activity ([8]; 1 µM flavonoid): inhibited
- Residual CYP1A2 enzyme activity, time dependent inhibition (TDI) assay ([8]; 1 µM flavonoid, preincubation without generating system): complete inhibition
- Type of CYP1A2 inhibition [8, 9]: reversible
- activity at 15 min, 1 µM [8]: 18 ± 4%
- activity at 15 min, 1 µM ([8]; Residual CYP1A2 enzyme activity, direct inhibition (DI) assay, 1 µM flavonoid, no preincubation): 23 ± 6%
Structure (SMILES): O=c1cc(-c2ccccc2)oc2cc(O)cc(O)c12 [chrysin]
- Type of inhibition of ethoxy- and pentoxy-resorufin dealkylation [5]: mix type reversible
- Type of CYP1A2 inhibition, N3-demethylation of caffeine [6]: reversible, competitive inhibition
- CYP2C8 enzyme activity in the TDI assay [4]: reduction of enzyme activity was not observed
- Type of CYP2C8 inhibition [4]: mixed reversible and irreversible inhibitors
- Type of CYP1A2 inhibition, ethoxyresorufin O-deethylation [7]: reversible mix inhibition
- Inhibition of CYP3A4 metabolic activity [1]: inhibition

Structure (SMILES): O=c1cc(-c2ccccc2)oc2ccccc12 [flavone]
- Inhibition of CYP3A4 metabolic activity [1]: inhibition

- Inhibition of CYP2A6 enzyme activity [2]: inhibited
- Inhibition of CYP2C8 paclitaxel 6-α-hydroxylation [4]: inhibition
Structure (SMILES): O=c1c(O)c(-c2ccccc2)oc2cc(O)cc(O)c12 [galangin]
- CYP2C8 enzyme activity in the TDI assay [4]: reduction of enzyme activity was not observed
- Type of CYP2C8 inhibition [4]: mixed reversible and irreversible inhibitors
- Inhibition of CYP3A4 metabolic activity [1]: inhibition

Structure (SMILES): COc1ccc([C@@H]2CC(=O)c3c(O)cc(O)cc3O2)cc1O [hesperetin]
- Inhibition of CYP3A4 metabolic activity [1]: inhibition

- Inhibition of CYP1A2 activity ([8]; 1 µM flavonoid): inhibited
Structure (SMILES): O=c1c(O)c(-c2ccc(O)cc2O)oc2cc(O)cc(O)c12 [morin]
- Inhibition constant relative to chrysin ([5]; morin versus chrysin): 16 fold
- Ki ([5]; read-out: Inhibition constant, ethoxy- and pentoxy-resorufin dealkylation): 5000 nM
- Type of inhibition of ethoxy- and pentoxy-resorufin dealkylation [5]: mix type reversible
- Inhibition of CYP3A4 metabolic activity [1]: inhibition

Structure (SMILES): O=C1C[C@@H](c2ccccc2)Oc2cc(O)cc(O)c21 [pinocembrin]
- Inhibition of CYP3A4 metabolic activity [1]: inhibition

Structure (SMILES): COc1ccc(-c2oc3cc(O)cc(O)c3c(=O)c2O)cc1O [tamarixetin]
- Inhibition of CYP3A4 metabolic activity [1]: inhibition

- Inhibition of CYP2A6 enzyme activity [2]: inhibited
- Type of CYP2A6 inhibition [2, 9]: direct inhibitor
Structure (SMILES): COc1ccc(-c2cc(=O)c3c(OC)c(OC)c(OC)c(OC)c3o2)cc1 [tangeretin]
- Inhibition of CYP3A4 metabolic activity [1]: inhibition
